Laboratory results from publication PMC11187126, “Structure and dynamics of the pyroglutamylated RF-amide peptide QRFP receptor GPR103” (Nature Communications, 2024).
Where two headings read alike, the source gives them in different places. No end group written: not given here.

Biological target: T1, GPR103 F322^7.43A (Homo sapiens, UniProt Q96P65, F322A)
T1 construct: we used human full-length QRFPR-encoding plasmids; expressed in transfected cells; host or cells: HEK293 cells (HEK293A in the flow cytometry section), pCAGGS vector
T1 sequence (Q96P65 1-431 F322A): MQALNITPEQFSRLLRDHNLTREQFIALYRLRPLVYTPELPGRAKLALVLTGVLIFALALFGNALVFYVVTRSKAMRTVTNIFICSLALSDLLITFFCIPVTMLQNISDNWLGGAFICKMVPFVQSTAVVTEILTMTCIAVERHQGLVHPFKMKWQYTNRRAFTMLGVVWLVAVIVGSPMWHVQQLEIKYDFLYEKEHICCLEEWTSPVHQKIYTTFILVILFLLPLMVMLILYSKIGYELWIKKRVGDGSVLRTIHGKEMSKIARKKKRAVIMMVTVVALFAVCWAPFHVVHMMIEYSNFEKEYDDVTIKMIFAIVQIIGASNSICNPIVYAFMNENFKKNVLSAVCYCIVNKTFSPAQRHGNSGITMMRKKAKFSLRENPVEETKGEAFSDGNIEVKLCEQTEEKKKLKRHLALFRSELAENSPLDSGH
Assay: TGFα shedding assay; Exp. level WT (1:50)
Type: cell-based

## TSGPLGNLAEELNGYSRKKGGFSFRF-NH2 [QRFP26]
Exp. #1
  Emax: 46.65 % WT
Exp. #2
  Emax: 35.03 % WT
Exp. #3
  Emax: 42.29 % WT
mean, read-out: Emax
  Emax: 41.3%
N = 3
  EC50: 24.5 nM
N = 3, read-out: Emax
  Emax: 42.7 ± 2.8%
